Target: T1, human FXR (NR1H4) (Homo sapiens, UniProt Q96RI1)
T1 construct: host or cells: CHO (Chinese hamster ovary) cells
T1 sequence (Q96RI1 1-486): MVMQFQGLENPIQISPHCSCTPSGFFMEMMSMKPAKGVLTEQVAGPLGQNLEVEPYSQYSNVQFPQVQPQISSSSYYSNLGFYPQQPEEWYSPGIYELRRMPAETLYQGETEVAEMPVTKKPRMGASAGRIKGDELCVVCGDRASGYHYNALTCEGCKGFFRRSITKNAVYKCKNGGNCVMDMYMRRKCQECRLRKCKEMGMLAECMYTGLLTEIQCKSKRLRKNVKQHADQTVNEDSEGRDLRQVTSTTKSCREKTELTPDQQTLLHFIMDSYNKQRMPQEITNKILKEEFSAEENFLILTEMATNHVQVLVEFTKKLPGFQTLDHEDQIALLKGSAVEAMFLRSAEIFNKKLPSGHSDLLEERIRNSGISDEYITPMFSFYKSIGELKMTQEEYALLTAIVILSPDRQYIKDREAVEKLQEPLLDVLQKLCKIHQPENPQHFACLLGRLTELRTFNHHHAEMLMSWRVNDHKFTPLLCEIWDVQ
Assay: Human FXR (NR1H4) Assay (Gal4 promoter driven luciferase reporter, Indigo Bioscience kit IB00601)
Format: cell-based
Conditions: CHO reporter cells expressing human NR1H4; for EC50: FXR agonistic potency range, 22 hours incubation; for Efficacy (%): normalized to CDCA set as 100%
Description: Assays Human FXR (NR1H4) Assay Determination of a ligand mediated Gal4 promoter driven transactivation to quantify ligand binding mediated activation of FXR. FXR Reporter Assay kit purchased from Indigo Bioscience (Catalogue number: IB00601) to determine the potency and efficacy of compound developed by Enanta that can induce FXR activation. The principal application of this reporter assay system is to quantify functional activity of human FXR. The assay utilizes non-human mammalian cells, CHO (Chinese hamster ovary) cells engineered to express human NR1H4 protein (referred to as FXR). Reporter cells also incorporate the cDNA encoding beetle luciferase which catalyzes the substrates and yields photon emission. Luminescence intensity of the reaction is quantified using a plate-reading luminometer, Envision. Reporter Cells include the luciferase reporter gene functionally linked to an FXR responsive promoter. Thus, quantifying changes in luciferase expression in the treated reporter cells provides a sensitive surrogate measure of the changes in FXR activity. […] The assay is according to the manufacturer's instructions. In brief, the assay was performed in white, 96 well plates using final volume of 100 ul containing cells with different doses of compounds. Retrieve Reporter Cells from −80° C. storage. Perform a rapid thaw of the frozen cells by transferring a 10 ml volume of 37° C. cell recovery medium into the tube of frozen cells. Recap the tube of Reporter Cells and immediately place it in a 37° C. water bath for 5-10 minutes. Retrieve the tube of Reporter Cell Suspension from the water bath. Sanitize the outside surface of the tube with a 70% alcohol swab, and then transfer it into the cell culture hood. Dispense 90 μl of cell suspension into each well of the 96-well Assay Plate. Transfer the plate into 37° C. incubator, allowing the cells adherent to the bottom of the well. Dilute compounds in Dilution Plate (DP), and administrate to cells at Assay Plate (AP). DMSO content of the samples was kept at 0.2%. Cells were incubated for additional 22 hours before luciferase activities were measured. Thirty minutes before intending to quantify FXR activity, remove Detection Substrate and Detection Buffer from the refrigerator and place them in a low-light area so that they may equilibrate to room temperature. Remove the plate's lid and discard all media contents by ejecting it into an appropriate waste container. Gently tap the inverted plate onto a clean absorbent paper towel to remove residual droplets. Cells will remain tightly adhered to well bottoms. Add 100 μl of luciferase detection reagent to each well of the assay plate. Allow the assay plate to rest at room temperature for at least 5 minutes following the addition of LDR. Set the instrument (Envision) to perform a single 5 second “plate shake” prior to reading the first assay well. Read time may be 0.5 second (500 mSec) per well.

Compound	EC50 [nM]	Efficacy (%)
CC[C@H]1[C@@H](O)[C@@H]2[C@H](CC[C@]3(C)[C@@H]([C@H](C)Cc4nnc(NS(=O)(=O)N(C)C)[nH]4)CC[C@@H]23)[C@@]2(C)CC[C@@H](O)C[C@@H]12 [Example 8]	100 to 1000	234
CC[C@H]1[C@@H](O)[C@@H]2[C@H](CC[C@]3(C)[C@@H]([C@H](C)CCc4nnc(N)o4)CC[C@@H]23)[C@@]2(C)CC[C@@H](O)C[C@@H]12 [Example 9]	100 to 1000	222
CC[C@H]1[C@@H](O)[C@@H]2[C@H](CC[C@]3(C)[C@@H]([C@H](C)CCc4nnc(C5CC5)o4)CC[C@@H]23)[C@@]2(C)CC[C@@H](O)C[C@@H]12 [Example 10]	100 to 1000	304
CC[C@H]1[C@@H](O)[C@@H]2[C@H](CC[C@]3(C)[C@@H]([C@H](C)CCc4nc(C5CC5)no4)CC[C@@H]23)[C@@]2(C)CC[C@@H](O)C[C@@H]12 [Example 11]	1000 to 10000	239
CC[C@H]1[C@@H](O)[C@@H]2[C@H](CC[C@]3(C)[C@@H]([C@H](C)CCc4nnc(C5CC5)s4)CC[C@@H]23)[C@@]2(C)CC[C@@H](O)C[C@@H]12 [Example 12]	100 to 1000	369
CC[C@H]1[C@@H](O)[C@@H]2[C@H](CC[C@]3(C)[C@@H]([C@H](C)CCc4nnc(C5CC5)[nH]4)CC[C@@H]23)[C@@]2(C)CC[C@@H](O)C[C@@H]12 [Example 13]	1000 to 10000	168
CC[C@H]1[C@@H](O)[C@@H]2[C@H](CC[C@]3(C)[C@@H]([C@H](C)CCc4nnc(N(C)C)o4)CC[C@@H]23)[C@@]2(C)CC[C@@H](O)C[C@@H]12 [Example 14]	100 to 1000	265
CC[C@H]1[C@@H](O)[C@@H]2[C@H](CC[C@]3(C)[C@@H]([C@H](C)CCc4nnc(-c5ccccc5)s4)CC[C@@H]23)[C@@]2(C)CC[C@@H](O)C[C@@H]12 [Example 15]	100 to 1000	362
CC[C@H]1[C@@H](O)[C@@H]2[C@H](CC[C@]3(C)[C@@H]([C@H](C)CCc4nnc(Cc5ccccc5)s4)CC[C@@H]23)[C@@]2(C)CC[C@@H](O)C[C@@H]12 [Example 16]	100 to 1000	378
CC[C@H]1[C@@H](O)[C@@H]2[C@H](CC[C@]3(C)[C@@H]([C@H](C)CCc4nnc(C(C)(C)C)s4)CC[C@@H]23)[C@@]2(C)CC[C@@H](O)C[C@@H]12 [Example 17]	100 to 1000	314
CC[C@H]1[C@@H](O)[C@@H]2[C@H](CC[C@]3(C)[C@@H]([C@H](C)CCc4nnc(C5CCCCC5)s4)CC[C@@H]23)[C@@]2(C)CC[C@@H](O)C[C@@H]12 [Example 18]	1000 to 10000	244
CC[C@H]1[C@@H](O)[C@@H]2[C@H](CC[C@]3(C)[C@@H]([C@H](C)CCc4nnc(-c5ccc(C(C)(C)C)cc5)s4)CC[C@@H]23)[C@@]2(C)CC[C@@H](O)C[C@@H]12 [Example 19]	1000 to 10000	172
CC[C@H]1[C@@H](O)[C@@H]2[C@H](CC[C@]3(C)[C@@H]([C@H](C)Cc4nnc(-c5ccc(C(C)(C)C)cc5)o4)CC[C@@H]23)[C@@]2(C)CC[C@@H](O)C[C@@H]12 [Example 20]	1000 to 10000	87

— patent US10323061B2, “Heteroaryl containing bile acid analogs as FXR/TGR5 agonists and methods of use thereof” (ENANTA PHARMACEUTICALS, INC., priority 2016, dated 2019)
